Test system: DBA/2 mice
Test: Audiogenic seizure model
Type: in vivo
Conditions: Mus musculus, DBA/2 mice, oral, auditory stimulation 1 hour after administration, read-out: Seizure suppression
Experimental: The animal model used in this test is a phenotype model for partial seizure (including secondary generalized seizure) and generalized tonic-clonic seizure, and has high clinical predictability. This test was performed in accordance with the report of De Sarro et al (Br J Pharmacol. 1988 February; 93 (2): 247-56. Anticonvulsant effects of some calcium entry blockers in DBA/2 mice. De Sarro G B, Meldrum B S, Nistico G.).
In this test example, the example compounds shown in Tables 3-1 to 3-3 below were used as test compounds.
The test compounds were suspended in 5% gum arabic/distilled water (w/v), and administered by forced oral administration to male and female DBA/2 mice (Japan SLC, Inc., 3 weeks old, 8 per group) at a dose of 30 mg/kg. After one hour of the oral administration of the test compound, each mouse was placed in a transparent acrylic cylinder 30 cm high and 23 cm in diameter, and 30 seconds were allowed for habituation. Then, they were exposed to auditory stimulation (12.6 kHz, 100-110 dB) for 1 minute or until a tonic seizure occurred.
The seizure response was assessed using the following scale, 0: no seizure, 1: wild running, 2: clonic seizure, 3: tonic seizure and 4: respiratory arrest. The maximum response was recorded as the seizure severity score.
The seizure suppression rate for each compound administration group was calculated according to the following formula.
Here, a rate of seizure suppression of 90% or more was expressed as “A”, a rate of seizure suppression of 70% or more and less than 90% was expressed as “B”, and a rate of seizure suppression of 50% or more and less than 70% was expressed as “C”.

SMILES: Fc1cccc(Oc2ncc(-c3ccc4nccn4n3)cn2)c1 [Example 125]
- inhibition in vivo at 30 mg/kg: > 90%

SMILES: Fc1ccc(Oc2ncc(-c3ccc4nccn4n3)cn2)cc1 [Example 126]
- inhibition in vivo at 30 mg/kg: > 90%

SMILES: c1ccc(Oc2ncc(-c3cnc4nccn4c3)cn2)cc1 [Example 128]
- inhibition in vivo at 30 mg/kg: > 90%

SMILES: Fc1ccccc1Oc1ncc(-c2ccn3ccnc3c2)cn1 [Example 130]
- inhibition in vivo at 30 mg/kg: > 90%

SMILES: Fc1cccc(Oc2ncc(-c3ccn4ccnc4c3)cn2)c1 [Example 131]
- inhibition in vivo at 30 mg/kg: > 90%

SMILES: Fc1ccc(Oc2ncc(-c3ccn4ccnc4c3)cn2)cc1 [Example 132]
- inhibition in vivo at 30 mg/kg: > 90%

SMILES: c1ccc(Oc2ncc(-c3cnc4[nH]ncc4c3)cn2)cc1 [Example 133]
- inhibition in vivo at 30 mg/kg: > 90%

SMILES: c1ccc(Oc2ncc(-c3ccn4ncnc4c3)cn2)cc1 [Example 135]
- inhibition in vivo at 30 mg/kg: > 90%

SMILES: c1ccc(Oc2ncc(-c3cccc4nccn34)cn2)cc1 [Example 136]
- inhibition in vivo at 30 mg/kg: > 90%

SMILES: c1ccc(Oc2ncc(-c3ccnc4[nH]ccc34)cn2)cc1 [Example 138]
- inhibition in vivo at 30 mg/kg: > 90%

SMILES: c1ccc(Oc2ncc(-c3ccnc4ncccc34)cn2)cc1 [Example 139, 4-(2-Phenoxypyrimidin-5-Yl)-1,8-Naphthyridine]
- inhibition in vivo at 30 mg/kg: > 90%

SMILES: Nc1cn2cc(-c3cnc(Oc4ccccc4)nc3)ccc2n1 [Example 140]
- inhibition in vivo at 30 mg/kg: > 90%

SMILES: COc1nc(Oc2ccccc2)ncc1-c1ccc2nccn2c1 [Example 142]
- inhibition in vivo at 30 mg/kg: > 90%

SMILES: Fc1ccccc1Oc1ncc(-c2ccc3ncnn3c2)cn1 [Example 144]
- inhibition in vivo at 30 mg/kg: > 90%

SMILES: Fc1cccc(Oc2ncc(-c3ccc4ncnn4c3)cn2)c1 [Example 145]
- inhibition in vivo at 30 mg/kg: > 90%

SMILES: Fc1ccc(Oc2ncc(-c3ccc4ncnn4c3)cn2)cc1 [Example 146]
- inhibition in vivo at 30 mg/kg: > 90%

SMILES: NC1=NC2C=CC(c3cnc(Oc4ccccc4)nc3)=CC2=N1 (stereo not shown) [Example 147]
- inhibition in vivo at 30 mg/kg: > 90%

SMILES: Fc1ccccc1Oc1ncc(-c2cn3ccnc3cn2)cn1 [Example 149]
- inhibition in vivo at 30 mg/kg: > 90%

SMILES: Fc1cccc(Oc2ncc(-c3cn4ccnc4cn3)cn2)c1 [Example 150]
- inhibition in vivo at 30 mg/kg: > 90%

SMILES: Fc1ccccc1Oc1ncc(-c2ccc3ccnn3c2)cn1 [Example 152]
- inhibition in vivo at 30 mg/kg: > 90%

SMILES: Fc1cccc(Oc2ncc(-c3ccc4ccnn4c3)cn2)c1 [Example 153]
- inhibition in vivo at 30 mg/kg: > 90%

SMILES: Fc1ccc(Oc2ncc(-c3ccc4ccnn4c3)cn2)cc1 [Example 154]
- inhibition in vivo at 30 mg/kg: > 90%

SMILES: Fc1ccccc1Oc1ncc(-c2ccc3cncn3c2)cn1 [Example 156]
- inhibition in vivo at 30 mg/kg: > 90%

SMILES: Fc1cccc(Oc2ncc(-c3ccc4cncn4c3)cn2)c1 [Example 157]
- inhibition in vivo at 30 mg/kg: > 90%

SMILES: Fc1ccc(Oc2ncc(-c3ccc4cncn4c3)cn2)cc1 [Example 158]
- inhibition in vivo at 30 mg/kg: > 90%

SMILES: COc1nc(Oc2ccccc2)ncc1-c1ccc2nncn2c1 [Example 159]
- inhibition in vivo at 30 mg/kg: > 90%

SMILES: COc1nc(Oc2ccccc2)ncc1-c1ccc2nccn2n1 [Example 160]
- inhibition in vivo at 30 mg/kg: > 90%

SMILES: Fc1cccc(Oc2ncc(-c3ccc4nccn4c3)cn2)c1F [Example 164]
- inhibition in vivo at 5 mg/kg: > 90%

SMILES: Fc1ccc(Oc2ncc(-c3ccc4nccn4c3)cn2)c(F)c1 [Example 165]
- inhibition in vivo at 5 mg/kg: > 90%

SMILES: Fc1ccc(F)c(Oc2ncc(-c3ccc4nccn4c3)cn2)c1 [Example 166]
- inhibition in vivo at 5 mg/kg: > 90%

SMILES: Fc1cccc(F)c1Oc1ncc(-c2ccc3nccn3c2)cn1 [Example 167]
- inhibition in vivo at 5 mg/kg: > 90%

SMILES: Fc1ccc(Oc2ncc(-c3ccc4nccn4c3)cn2)cc1F [Example 168]
- inhibition in vivo at 5 mg/kg: > 90%

SMILES: Fc1cc(F)cc(Oc2ncc(-c3ccc4nccn4c3)cn2)c1 [Example 169]
- inhibition in vivo at 5 mg/kg: > 90%

SMILES: Fc1ccccc1Oc1ncc(-c2ccc3cnnn3c2)cn1 [Example 174]
- inhibition in vivo at 30 mg/kg: > 90%

SMILES: Fc1cccc(Oc2ncc(-c3ccc4cnnn4c3)cn2)c1 [Example 175]
- inhibition in vivo at 30 mg/kg: > 90%

SMILES: Fc1ccc(Oc2ncc(-c3ccc4cnnn4c3)cn2)cc1 [Example 176]
- inhibition in vivo at 30 mg/kg: > 90%

SMILES: Cc1cn2cc(-c3cnc(Oc4ccccc4F)nc3)ccc2n1 [Example 178]
- inhibition in vivo at 30 mg/kg: > 90%

SMILES: Cc1cn2cc(-c3cnc(Oc4cccc(F)c4)nc3)ccc2n1 [Example 179]
- inhibition in vivo at 30 mg/kg: > 90%

SMILES: Cc1cn2cc(-c3cnc(Oc4ccc(F)cc4)nc3)ccc2n1 [Example 180]
- inhibition in vivo at 30 mg/kg: > 90%

SMILES: Cc1cn2ccc(-c3cnc(Oc4ccccc4F)nc3)cc2n1 [Example 182]
- inhibition in vivo at 30 mg/kg: > 90%

SMILES: Cc1cn2ccc(-c3cnc(Oc4cccc(F)c4)nc3)cc2n1 [Example 183]
- inhibition in vivo at 30 mg/kg: > 90%

SMILES: Fc1ccccc1Oc1ncc(-c2ccn3nncc3c2)cn1 [Example 185]
- inhibition in vivo at 30 mg/kg: > 90%

SMILES: Fc1cccc(Oc2ncc(-c3ccn4nncc4c3)cn2)c1 [Example 186]
- inhibition in vivo at 30 mg/kg: > 90%

SMILES: Fc1ccc(Oc2ncc(-c3ccn4nncc4c3)cn2)cc1 [Example 187]
- inhibition in vivo at 30 mg/kg: > 90%

SMILES: Fc1cccc(Oc2ncc(-c3cnc4ncnn4c3)cn2)c1 [Example 189]
- inhibition in vivo at 30 mg/kg: > 90%

SMILES: Cc1cnc2ccc(-c3cnc(Oc4ccccc4F)nc3)cn12 [Example 191]
- inhibition in vivo at 30 mg/kg: > 90%

SMILES: Cc1cnc2ccc(-c3cnc(Oc4cccc(F)c4)nc3)cn12 [Example 192]
- inhibition in vivo at 30 mg/kg: > 90%

SMILES: Cc1cnc2ccc(-c3cnc(Oc4ccc(F)cc4)nc3)cn12 [Example 193]
- inhibition in vivo at 30 mg/kg: > 90%

SMILES: Fc1ccccc1Oc1ncc(-c2ccn3nccc3c2)cn1 [Example 195]
- inhibition in vivo at 30 mg/kg: > 90%

SMILES: Fc1cccc(Oc2ncc(-c3ccn4nccc4c3)cn2)c1 [Example 196]
- inhibition in vivo at 30 mg/kg: > 90%

SMILES: Fc1ccc(Oc2ncc(-c3ccn4nccc4c3)cn2)cc1 [Example 197]
- inhibition in vivo at 30 mg/kg: > 90%

SMILES: Cc1c(-c2cnc(Oc3ccccc3F)nc2)ccc2nccn12 [Example 199]
- inhibition in vivo at 30 mg/kg: > 90%

SMILES: Cc1c(-c2cnc(Oc3cccc(F)c3)nc2)ccc2nccn12 [Example 200]
- inhibition in vivo at 30 mg/kg: > 90%

SMILES: Cc1c(-c2cnc(Oc3ccc(F)cc3)nc2)ccc2nccn12 [Example 201]
- inhibition in vivo at 30 mg/kg: > 90%

SMILES: Cc1nc2ccc(-c3cnc(Oc4ccccc4F)nc3)cn2c1C [Example 202]
- inhibition in vivo at 30 mg/kg: > 90%

SMILES: Cc1nc2ccc(-c3cnc(Oc4ccc(F)cc4)nc3)cn2c1C [Example 203]
- inhibition in vivo at 30 mg/kg: > 90%

SMILES: Cc1nc2cc(-c3cnc(Oc4ccccc4F)nc3)ccn2c1C [Example 205]
- inhibition in vivo at 30 mg/kg: > 90%

SMILES: Cc1nc2cc(-c3cnc(Oc4cccc(F)c4)nc3)ccn2c1C [Example 206]
- inhibition in vivo at 30 mg/kg: > 90%

SMILES: Cc1nc2cc(-c3cnc(Oc4ccc(F)cc4)nc3)ccn2c1C [Example 207]
- inhibition in vivo at 30 mg/kg: > 90%

SMILES: COCc1cn2cc(-c3cnc(Oc4ccccc4)nc3)ccc2n1 [Example 208]
- inhibition in vivo at 30 mg/kg: > 90%

SMILES: COCc1cn2cc(-c3cnc(Oc4ccccc4F)nc3)ccc2n1 [Example 209]
- inhibition in vivo at 30 mg/kg: > 90%

SMILES: COCc1cn2cc(-c3cnc(Oc4cccc(F)c4)nc3)ccc2n1 [Example 210]
- inhibition in vivo at 30 mg/kg: > 90%

SMILES: Fc1cccc(Oc2ncc(-c3ccn4cnnc4c3)cn2)c1 [Example 212]
- inhibition in vivo at 30 mg/kg: > 90%

SMILES: Fc1ccc(Oc2ncc(-c3ccn4cnnc4c3)cn2)cc1 [Example 213]
- inhibition in vivo at 30 mg/kg: > 90%

SMILES: Cn1ccc2ccc(-c3cnc(Oc4ccccc4)nc3)nc21 [Example 215]
- inhibition in vivo at 30 mg/kg: > 90%

SMILES: Fc1ccccc1Oc1ncc(-c2ccn3cc(C(F)(F)F)nc3c2)cn1 [Example 217]
- inhibition in vivo at 30 mg/kg: > 90%

SMILES: Fc1cccc(Oc2ncc(-c3ccn4cc(C(F)(F)F)nc4c3)cn2)c1 [Example 218]
- inhibition in vivo at 30 mg/kg: > 90%

SMILES: Fc1ccc(Oc2ncc(-c3ccn4cc(C(F)(F)F)nc4c3)cn2)cc1 [Example 219]
- inhibition in vivo at 30 mg/kg: > 90%

SMILES: O=C1NCCCN1c1cnc(Oc2cccc(F)c2)nc1 [Example 221, 1-(2-(3-Fluorophenoxy)Pyrimidin-5-Yl)Tetrahydropyrimidin-2 (1H)-One]
- inhibition in vivo at 30 mg/kg: > 90%

SMILES: Fc1ccc(Oc2ncc(N3CCOCC3)cn2)cc1 [Example 225]
- inhibition in vivo at 30 mg/kg: > 90%

SMILES: OC1CCN(c2cnc(Oc3cccc(F)c3)nc2)CC1 [Example 227]
- inhibition in vivo at 30 mg/kg: > 90%

SMILES: OC1CCN(c2cnc(Oc3ccc(F)cc3)nc2)CC1 [Example 228]
- inhibition in vivo at 30 mg/kg: > 90%

SMILES: O=C1COCCN1c1cnc(Oc2cccc(F)c2)nc1 [Example 230]
- inhibition in vivo at 30 mg/kg: > 90%

SMILES: O=C1COCCN1c1cnc(Oc2ccc(F)cc2)nc1 [Example 231]
- inhibition in vivo at 30 mg/kg: > 90%

SMILES: O=C1CCOCCN1c1cnc(Oc2ccccc2)nc1 [Example 232]
- inhibition in vivo at 30 mg/kg: > 90%

SMILES: O=C1CCOCCN1c1cnc(Oc2cccc(F)c2)nc1 [Example 233]
- inhibition in vivo at 30 mg/kg: > 90%

SMILES: O=C1CCOCCN1c1cnc(Oc2ccc(F)cc2)nc1 [Example 234]
- inhibition in vivo at 30 mg/kg: > 90%

SMILES: Cc1nc2cc(-c3cnc(Oc4ccccc4)nc3)ccc2s1 [Example 238]
- inhibition in vivo at 30 mg/kg: > 90%

SMILES: Nc1nc2ccc(-c3cnc(Oc4ccccc4)nc3)cc2s1 [Example 240, 6-(2-Phenoxypyrimidin-5-Yl)Benzo[d]Thiazol-2-Amine]
- inhibition in vivo at 30 mg/kg: > 90%

Reference: US12391674B2, “Heterocyclic compounds for the treatment of epilepsy” (OTSUKA PHARMACEUTICAL CO., LTD., priority 2018, dated 2025)
